Measured values as given in US20230338454A1, “FORSYTHIA SUSPENSA COMPONENT AND OPTIONAL PANAX GINSENG COMPONENT AND THE APPLICATION” (priority 2020, published 2023).

Tests used:
[1] = test system: Adenovirus (AdV); test: Effect of drugs on viral cytopathic effect, effective antiviral rate (ER%); type: cell-based; conditions: Vero cells, 100TCID50, drug at maximum non-toxic concentration, 72 h, MTT
[2] = test system: epithelial cells of plantar sweat glands of rats; test: Sweat secretion of rat paw (histomorphology observation method); type: in vivo, Wistar rats; conditions: 1 h after gavage, dose not given
Excerpt: After sweat glands activation in rats, besides the increase of sweat secretion, the morphology of the epithelial cells of the sweat glands changes accordingly. Under the optical microscope, the increase and enlargement of vacuoles in the epithelial cells of the sweat glands are observed. Under an electron microscope, the enlarged vacuoles appear to be due to swelling and rupture of mitochondria, enlargement of fusion and secretory vesicles in the epithelial cells of sweat glands. The secretory activity of sweat glands could be understood by observing the histomorphology of the epithelial cells of plantar sweat glands of rats. Three hundred Wistar rats, half male and half female, weighing 120-160 g. were taken in the study. […] Except for the pilocarpine solution given by subcutaneous injection, other groups were administered by gavage. One hour after the control group was given 0.5% carboxymethyl cellulose, 30 min after the positive drug group was given pilocarpine, and 1 h after the administration of forsythin, ginsenoside Rg3 and the panax ginseng-forsythia suspensa composition, the right hind limb was immediately cut off at the level of the ankle joint. […] Observations were made under an optical microscope for changes in the epithelial cells of the plantar sweat glands of rats in each group, mainly the incidence of vacuoles. The statistical processing was performed by X^2 test, and differences among the groups were compared. The above study was repeated for 3 times.

[3] = test system: carrageenan-induced paw swelling; test: Carrageenan-induced paw swelling in rats; type: in vivo, Wistar rats; conditions: sublingual intravenous injection; for Swelling rate (%) 15 min: 15 min after inflammation induction; for Swelling rate (%) 30 min: 30 min after inflammation induction; for Swelling rate (%) 60 min: 60 min after inflammation induction; for Swelling rate (%) 120 min: 120 min after inflammation induction; for Swelling rate (%) 180 min: 180 min after inflammation induction; for Swelling rate (%) 240 min: 240 min after inflammation induction; for Swelling rate (%) 300 min: 300 min after inflammation induction; for Swelling rate (%) 360 min: 360 min after inflammation induction
Description: Each group was administered by sublingual intravenous injection. Before the study, the normal volume of the right hind limb was measured by the capillary magnification method. To avoid errors, the measurement position should be fixed and performed by one person before and after administration. The average of the two measurements was taken as the normal volume of the right hind limb of the rats prior to administration. […] The inter-group t-test was performed by the difference percentage (swelling rate) of the plantar volume before and after the inflammation induction, and the differences among the groups were compared.

[4] = test system: HCMV AD169 strain; test: Inhibitory effect on HCMV in vitro (MEC, therapeutic index); type: cell-based, human cytomegalovirus; conditions: HCMV AD169, 100 times TCD50, 10 days of culture
Description: Human embryonic lung fibroblast cell strain (purchased from Sino Best Biological Technology Co., Ltd.). The cells were cultured and subcultured according to the conventional method.
HCMV AD169 strain was purchased from American Type Culture Collection (ATCC).
Cells were inoculated in a 96-well plate, allowed to grow into monolayers, and inoculated with a virus challenge of 100 times TCD50. Starting from TD0, each drug was diluted stepwise according to 10-fold gradient to prepare 5 concentrations, with 4 wells set for each concentration. In addition, 4 wells of normal cell control and 4 wells of virus control were set.

[5] = test system: Human embryonic lung fibroblast cell strain; test: Drug toxicity testing (MTT and cytopathic effect methods), maximum non-toxic concentration TD0; conditions: human embryonic lung fibroblasts

SMILES | Effective Antiviral Rates (ER%) ADV [1] | Number of vacuolar sweat glands (number) [2] [number] | Vacuolation rate (%) [2] | Swelling rate (%) 15 min ([3]; 10.0 mg/kg) [%] | Swelling rate (%) 30 min ([3]; 10.0 mg/kg) [%] | Swelling rate (%) 60 min ([3]; 10.0 mg/kg) [%] | Swelling rate (%) 120 min ([3]; 10.0 mg/kg) | Swelling rate (%) 180 min ([3]; 10.0 mg/kg) | Swelling rate (%) 240 min ([3]; 10.0 mg/kg) | Swelling rate (%) 300 min ([3]; 10.0 mg/kg) | Swelling rate (%) 360 min ([3]; 10.0 mg/kg) | also measured
CC(C)=CCC[C@](C)(O)[C@H]1CC[C@]2(C)[C@@H]1[C@H](O)C[C@@H]1[C@@]3(C)CC[C@H](O[C@@H]4O[C@H](CO)[C@@H](O)[C@H](O)[C@H]4O[C@@H]4O[C@H](CO)[C@@H](O)[C@H](O)[C@H]4O)C(C)(C)[C@@H]3CC[C@]12C [20(R)-Ginsenoside Rg3, 20(R)-ginsenoside Rg3] | 51.07% | 79 | 20.26^∗∗ % | 14.9±6.13 | 21.9±9.72 | 27.1±13.5 | 30.7±10.2^∗ % | 33.8±12.1^∗ % | 31.0±11.3^∗ % | 35.8±13.5^∗ % | 36.4±10.2% | Swelling rate (%) 15 min ([3]; 2.5 mg/kg): 14.8±8.74%; Swelling rate (%) 30 min ([3]; 2.5 mg/kg): 18.9±12.1%; Swelling rate (%) 60 min ([3]; 2.5 mg/kg): 23.5±13.3^∗▲▲ %; Swelling rate (%) 120 min ([3]; 2.5 mg/kg): 28.9±14.2^∗∗Δ▲ %; Swelling rate (%) 180 min ([3]; 2.5 mg/kg): 31.8±14.8^∗∗Δ▲ %; Swelling rate (%) 240 min ([3]; 2.5 mg/kg): 33.1±18.3^∗∗Δ▲ %; Swelling rate (%) 300 min ([3]; 2.5 mg/kg): 34.9±19.6^∗∗Δ▲ %; Swelling rate (%) 360 min ([3]; 2.5 mg/kg): 37.8±18.3^∗▲▲ %
COc1ccc([C@H]2OCC3C2CO[C@H]3c2ccc(O[C@@H]3OC(CO)[C@@H](O)[C@H](O)C3O)c(OC)c2)cc1OC (some centres unmarked) [Forsythin] | 75.14^∗∗ % | 86 | 22.15^∗∗ % | 12.9±8.41 | 19.9±9.55 | 21.8±11.8 | 28.9±14.0^∗ % | 30.8±15.4^∗ % | 29.9±11.1^∗ % | 33.5±10.0^∗ % | 32.2±11.9^∗ % | Minimum effective concentration MEC [4]: 4 mg/L; Maximum non-toxic concentration TD0 [5]: 40 mg/L
